For orientation: EC50 means the midpoint of the concentration-response curve.

Structures are written as SMILES.

For one assay, the system named is ATF4 luciferase reporter in HEK293T cells. The experiment in a line: ATF4-Luc assay (ATF4 luciferase reporter, tunicamycin-treated HEK293T cells). The format is cell-based, human. As to conditions: HEK293T cells carrying the ATF4 luciferase reporter, 1 μg/mL tunicamycin, 7 hours. As to the method:
In order to test exemplary compounds of the invention in a cellular context, a stable VWMD cell line was first constructed. The ATF4 reporter was prepared by fusing the human full-length ATF4 5′-UTR (NCBI Accession No. BC022088.2) in front of the firefly luciferase (FLuc) coding sequence lacking the initiator methionine as described in Sidrauski et al (eLife 2013). The construct was used to produce recombinant retroviruses using standard methods and the resulting viral supernatant was used to transduce HEK293T cells, which were then subsequently selected with puromycin to generate a stable cell line.
HEK293T cells carrying the ATF4 luciferase reporter were plated on polylysine coated 384-well plates (Greiner Bio-one) at 30,000 cells per well. Cells were treated the next day with 1 μg/mL tunicamycin and 200 nM of a compound of Formula (I) for 7 hours. Luminescence was measured using One Glo (Promega) as specified by the manufacturer. Cells were maintained in DMEM with L-glutamine supplemented with 10% heat-inactivated FBS (Gibco) and Antibiotic-Antimycotic solution (Gibco).
Table 2 below summarizes the EC50 data obtained using the ATF4-Luc assay for exemplary compounds of the invention.
In the case of `O=C(COc1ccc(Cl)c(F)c1)NC12CCC(NC(=O)COc3ccc(C(F)(F)F)nc3)(CC1)C(F)C2` (single isomer, unassigned) [Compound 373], the EC50 fell in the range of 50 to 250 nM.

The same assay, now with this note: Homo sapiens, HEK-293T; HEK293T cells carrying the ATF4 luciferase reporter, 1 μg/mL tunicamycin, 7 hours.
`O=C(COc1ccc(Cl)c(F)c1)NC12CCC(NC(=O)COc3ccc(C(F)(F)F)nc3)(CC1)C(O)C2` (racemic) [Compound 301, 2-(4-chloro-3-fluorophenoxy)-N-[3-hydroxy-4-(2-{[6-(trifluoromethyl)pyridin-3-yl]oxy}acetamido)bicyclo[2.2.2]octan-1-yl]acetamide]: the concentration for a half-maximal effect (EC50) is less than 10 nM.

Consider `O=C(COc1ccc(Cl)c(F)c1)N[C@@]12CC[C@@](NC(=O)COc3ccc(Cl)c(F)c3)(C[C@@H]1O)[C@@H](O)C2` (racemic) [Compound 552, rac-N,N′-[(1R,2S,4R,5S)-2,5-dihydroxybicyclo[2.2.2]octane-1,4-diyl]bis[2-(4-chloro-3-fluorophenoxy)acetamide]], for which the concentration giving a half-maximal response (EC50) is less than 10 nM.

With `CO[C@H]1C[C@]2(NC(=O)COc3ccc(Cl)c(F)c3)CC[C@@]1(NC(=O)COc1ccc(Cl)c(F)c1)CC2O` (mixture of isomers) [Compound 553, rac-N,N′-[(1R,4R,5S)-2-hydroxy-5-methoxybicyclo[2.2.2]octane-1,4-diyl]bis[2-(4-chloro-3-fluorophenoxy)acetamide]], the half-maximal effective concentration (EC50) was less than 10 nM. Still for that read-out and setting: to `CO[C@@H]1C[C@]2(NC(=O)COc3ccc(Cl)c(F)c3)CC[C@@]1(NC(=O)COc1ccc(Cl)c(F)c1)CC2O` (mixture of isomers) [Compound 554, rac-N,N′-[(1R,4R,5R)-2-hydroxy-5-methoxybicyclo[2.2.2]octane-1,4-diyl]bis[2-(4-chloro-3-fluorophenoxy)acetamide]] belongs less than 10 nM; to `CO[C@H]1C[C@]2(NC(=O)COc3ccc(Cl)c(F)c3)CC[C@@]1(NC(=O)COc1ccc(Cl)c(F)c1)CC2=O` (racemic) [Compound 555, rac-N,N′-[(1R,2S,4R)-2-methoxy-5-oxobicyclo[2.2.2]octane-1,4-diyl]bis[2-(4-chloro-3-fluorophenoxy)acetamide]], 10 to 50 nM. Still for that read-out and setting: as for `CO[C@@H]1C[C@]2(NC(=O)COc3ccc(Cl)c(F)c3)CC[C@@]1(NC(=O)COc1ccc(Cl)c(F)c1)CC2=O` (racemic) [Compound 556, rac-N,N′-[(1R,2R,4R)-2-methoxy-5-oxobicyclo[2.2.2]octane-1,4-diyl]bis[2-(4-chloro-3-fluorophenoxy)acetamide]], the figure is 10 to 50 nM. On the same count and under the same terms, as for `O=C(COc1ccc(Cl)c(F)c1)NC12CCC(NC(=O)COc3ccc(Cl)c(F)c3)(C[C@H]1O)[C@@H](O)C2` (racemic) [Compound 557, rac-N,N′-[(2R,5S)-2,5-dihydroxybicyclo[2.2.2]octane-1,4-diyl]bis[2-(4-chloro-3-fluorophenoxy)acetamide]], the figure is less than 10 nM. As for `O=C(COc1ccc(Cl)c(F)c1)N[C@]12CC[C@](NC(=O)COc3ccc(Cl)c(F)c3)(C[C@@H]1O)[C@@H](O)C2` (racemic) [Compound 560, rac-N,N′-[(1S,2S,4S,5S)-2,5-dihydroxybicyclo[2.2.2]octane-1,4-diyl]bis[2-(4-chloro-3-fluorophenoxy)acetamide]], the 50% effective concentration (EC50) is less than 10 nM.

As to `O=C(COc1ccc(Cl)c(F)c1)NC12CCC(NC(=O)COc3ccc(Cl)c(F)c3)(CC1)[C@@H](O)[C@H]2Br` (racemic) [Compound 571, rac-N,N′-[(2S,3R)-2-bromo-3-hydroxybicyclo[2.2.2]octane-1,4-diyl]bis[2-(4-chloro-3-fluorophenoxy)acetamide]], the EC50 was 10 to 50 nM. Same read-out and setting: as for `O=C(COc1ccc(Cl)c(F)c1)N[C@]12CC[C@](NC(=O)COc3ccc(Cl)c(F)c3)(C1)[C@H](O)C2` (racemic) [Compound 579, rac-N,N′-[(1S,2R,4R)-2-hydroxybicyclo[2.2.1]heptane-1,4-diyl]bis[2-(4-chloro-3-fluorophenoxy)acetamide]], the figure is 10 to 50 nM. Same read-out and setting: as for `O=C(COc1ccc(Cl)c(F)c1)N[C@]12CC[C@](NC(=O)COc3ccc(Cl)c(F)c3)(C1)[C@@H](O)C2` (racemic) [Compound 585, rac-N,N′-[(1S,2S,4R)-2-hydroxybicyclo[2.2.1]heptane-1,4-diyl]bis[2-(4-chloro-3-fluorophenoxy)acetamide]], the figure is less than 10 nM; as for `O=C(COc1ccc(Cl)c(F)c1)N[C@@H]1[C@@H]2CC[C@@](NC(=O)COc3ccc(Cl)c(F)c3)(C2)C[C@H]1O` (racemic) [Compound 625, rac-N,N′-[(1R,3R,4R,5R)-3-hydroxybicyclo[3.2.1]octane-1,4-diyl]bis[2-(4-chloro-3-fluorophenoxy)acetamide]], less than 10 nM. The same measure, in the same setting: to `O=C(COc1ccc(Cl)c(F)c1)N[C@@H]1C[C@@H]2C[C@H]1C[C@H]2NC(=O)COc1ccc(Cl)c(F)c1` (racemic) [Compound 628, rac-N,N′-[(1R,2S,4R,5S)-bicyclo[2.2.1]heptane-2,5-diyl]bis[2-(4-chloro-3-fluorophenoxy)acetamide]] belongs less than 10 nM.

With `O=C(COc1ccc(Cl)c(F)c1)N[C@@H]1[C@@H]2CC[C@@](NC(=O)COc3ccc(Cl)c(F)c3)(C2)C[C@@H]1O` (racemic) [Compound 638, rac-N,N′-[(1R,3S,4R,5R)-3-hydroxybicyclo[3.2.1]octane-1,4-diyl]bis[2-(4-chloro-3-fluorophenoxy)acetamide]], the EC50 was less than 10 nM. Turning to `O=C(COc1ccc(Cl)c(F)c1)N[C@]12CC[C@H](C1)[C@@H](NCCOc1ccc(Cl)c(F)c1)[C@H](O)C2` (racemic) [Compound 649, rac-2-(4-chloro-3-fluorophenoxy)-N-[(1R,3R,4R,5R)-4-{[2-(4-chloro-3-fluorophenoxy)ethyl]amino}-3-hydroxybicyclo[3.2.1]octan-1-yl]acetamide], the EC50 is less than 10 nM. Still for that read-out and setting: as for `O=C(COc1ccc(Cl)c(F)c1)N[C@@H]1CC[C@]2(NC(=O)COc3ccc(Cl)c(F)c3)CC[C@H]1C2` (racemic) [Compound 653, rac-N,N′-[(1S,4S,5R)-bicyclo[3.2.1]octane-1,4-diyl]bis[2-(4-chloro-3-fluorophenoxy)acetamide]], the figure is less than 10 nM; as for `O=C(COc1ccc(Cl)c(F)c1)NC12CCC(NC(=O)COc3ccc(Cl)c(F)c3)(CC1)[C@@H](O)[C@@H]2O` (racemic) [Compound 745, rac-N,N′-[(2R,3R)-2,3-dihydroxybicyclo[2.2.2]octane-1,4-diyl]bis[2-(4-chloro-3-fluorophenoxy)acetamide]], less than 10 nM.

For `O=C(COc1ccc(Cl)c(F)c1)NC12CCC(NC(=O)COc3ccc(Cl)c(F)c3)(CC1)[C@H](O)C2` (single isomer, unassigned) [Compound 298], the concentration giving a half-maximal response (EC50) is less than 10 nM. With `O=C(COc1ccc(Cl)c(F)c1)NC12CCC(NC(=O)COc3ccc(C(F)(F)F)nc3)(CC1)[C@@H](O)C2` (single isomer, unassigned) [Compound 302], the EC50 was less than 10 nM. As to `O=C(COc1ccc(Cl)c(F)c1)NC12CCC(NC(=O)COc3ccc(C(F)(F)F)nc3)(CC1)[C@H](O)C2` (single isomer, unassigned) [Compound 303], the EC50 lay within 10 to 50 nM.

With `O=C(COc1ccc(Cl)c(F)c1)NC12CCC(NC(=O)COc3ccnc(C(F)(F)F)c3)(CC1)[C@H](O)C2` (single isomer, unassigned) [Compound 318], the EC50 was 10 to 50 nM. Still for that read-out and setting: to `O=C(COc1ccc(Cl)c(F)c1)NC12CCC(NC(=O)COc3ccnc(C(F)(F)F)c3)(CC1)[C@@H](O)C2` (single isomer, unassigned) [Compound 319] belongs less than 10 nM; to `O=C(COc1ccc(Cl)c(F)c1)NC12CCC(NC(=O)COc3ccc(F)cc3)(CC1)[C@H](O)C2` (single isomer, unassigned) [Compound 353], less than 10 nM; to `O=C(COc1ccc(Cl)c(F)c1)NC12CCC(NC(=O)COc3ccc(F)cc3)(CC1)[C@@H](O)C2` (single isomer, unassigned) [Compound 354], less than 10 nM. Turning to `O=C(COc1ccc(Cl)c(F)c1)NC12CCC(NC(=O)COc3ccc(C(F)(F)F)nc3)(CC1)C(F)C2` (single isomer, unassigned) [Compound 372], the half-maximal effective concentration (EC50) lay in the range of 50 to 250 nM.

Take `CC(=O)O[C@@H]1CC2(NC(=O)COc3ccc(Cl)c(F)c3)CCC1(NC(=O)COc1ccc(Cl)c(F)c1)CC2` (single isomer, unassigned) [Compound 449]: the EC50 was in the range of 10 to 50 nM. Take `O=C(COc1ccc(Cl)c(F)c1)N[C@H]1C[C@H]2C[C@@H]1C[C@@H]2NC(=O)COc1ccc(Cl)c(F)c1` (single isomer, unassigned) [Compound 620]: the EC50 is less than 10 nM.

`O=C(COc1ccc(Cl)c(F)c1)N[C@@H]1C[C@@H]2C[C@H]1C[C@H]2NC(=O)COc1ccc(Cl)c(F)c1` (single isomer, unassigned) [Compound 621]: the 50% effective concentration (EC50) was less than 10 nM. Same read-out and setting: as for `O=C(COc1ccc(Cl)c(F)c1)NC12CCC(N[C@H](CCOc3ccc(Cl)cc3)C(=O)O)(CC1)C[C@@H]2O` (single isomer, unassigned) [Compound 693], the figure is 500 to 2000 nM.

With `O=C(COc1ccc(Cl)c(F)c1)NC12CCC(N[C@@H](CCOc3ccc(Cl)cc3)C(=O)O)(CC1)C[C@@H]2O` (single isomer, unassigned) [Compound 694], the EC50 was in the range of 250 to 500 nM.

For `O=C(COc1ccc(Cl)c(F)c1)NC12CCC(NC(=O)COc3ccc(Cl)c(F)c3)(CC1)CC2` [Compound 100, N,N′-(bicyclo[2.2.2]octane-1,4-diyl)bis[2-(4-chloro-3-fluorophenoxy)acetamide]], the half-maximal effective concentration (EC50) was less than 10 nM.

These data come from patent US20240166652A1, “MODULATORS OF THE INTEGRATED STRESS PATHWAY” (Calico Life Sciences LLC, priority 2017, published 2024).
